{"source": "patent US20250000819A1", "about": "“Anti-hypoxic/anoxic injury use of a magnolol and/or honokiol aromatic ring amino-substituted derivative, and a pharmaceutical composition” (BEIJING HONGHUI MEDITECH CO., LTD., priority 2021, published 2025)", "format_in_all_cases": "in vivo, rat", "key": {"[1]": {"test_system": "SD male rats, hypoxia (the oxygen content was 11%) treatment", "assay": "Blood gas analysis of femoral artery blood in hypoxia-treated rats", "procedure": "2. Animal model: SPF-grade SD male rats, 220-240 g of the weight, and hypoxia (the oxygen content was 11%) treatment. 3. Experimental grouping: a hypoxia treatment control group, there were 4 rats in each group; and a hypoxia treatment administration group, there were 4 rats in each group. 4. Administration mode: before the hypoxia treatment, a single intravenous injection was administered to each rat in the hypoxia treatment administration group. 5. […] 2. Animal model: SPF-grade SD male rats, 220-240 g of the weight, and hypoxia (the oxygen content was 11%) treatment. 3. Experimental grouping: a hypoxia treatment control group, there were 4 rats in each group; and a hypoxia treatment administration group, there were 4 rats in each group. 4. Administration mode: before the hypoxia treatment, a single intravenous injection was administered to each rat in the hypoxia treatment administration group. 5. […] 2. Animal model: SPF-grade SD male rats, 220-240 g of the weight, and hypoxia (the oxygen content was 11%) treatment. 3. Experimental grouping: a hypoxia treatment control group, there were 4 rats in each group; and a hypoxia treatment administration group, there were 4 rats in each group. 4. Administration mode: single gavage administration of each rat in the hypoxic treatment group prior to hypoxic treatment. 5. […] 2. Animal model: SPF-grade SD male rats, 220-240 g of the weight, and hypoxia (the oxygen content was 11%) treatment. 3. Experimental grouping: a hypoxia treatment control group, there were 4 rats in each group; and a hypoxia treatment administration group, there were 4 rats in each group. 4. Administration mode: before the hypoxia treatment, a single intravenous injection was administered to each rat in the hypoxia treatment administration group. 5. […] 2. Animal model: SPF-grade SD male rats, 220-240 g of the weight, and hypoxia (the oxygen content was 11%) treatment. 3. Experimental grouping: a hypoxia treatment control group, there were 4 rats in each group; and a hypoxia treatment administration group, there were 4 rats in each group. 4. Administration mode: before the hypoxia treatment, a single intravenous injection was administered to each rat in the hypoxia treatment administration group. 5. […]"}, "[2]": {"test_system": "SD male rats, hypoxia (the oxygen content was 11%) treatment", "assay": "Respiratory rate evaluated during blood collection in hypoxia-treated rats", "conditions": "p<0.05", "procedure": "2. Animal model: SPF-grade SD male rats, 220-240 g of the weight, and hypoxia (the oxygen content was 11%) treatment. 4. Administration mode: before the hypoxia treatment, a single intravenous injection was administered to each rat in the hypoxia treatment administration group. 6. Respiratory rate: the rat respiratory rate was evaluated during blood collection. 2. Animal model: SPF-grade SD male rats, 220-240 g of the weight, and hypoxia (the oxygen content was 11%) treatment. 4. Administration mode: before the hypoxia treatment, a single intravenous injection was administered to each rat in the hypoxia treatment administration group. 6. Respiratory rate: the rat respiratory rate was evaluated during blood collection. 2. Animal model: SPF-grade SD male rats, 220-240 g of the weight, and hypoxia (the oxygen content was 11%) treatment. 4. Administration mode: single gavage administration of each rat in the hypoxic treatment group prior to hypoxic treatment. 6. Respiratory rate: the rat respiratory rate was evaluated during blood collection. 2. Animal model: SPF-grade SD male rats, 220-240 g of the weight, and hypoxia (the oxygen content was 11%) treatment. 4. Administration mode: before the hypoxia treatment, a single intravenous injection was administered to each rat in the hypoxia treatment administration group. 2. Animal model: SPF-grade SD male rats, 220-240 g of the weight, and hypoxia (the oxygen content was 11%) treatment. 4. Administration mode: before the hypoxia treatment, a single intravenous injection was administered to each rat in the hypoxia treatment administration group. 6. Respiratory rate: the rat respiratory rate was evaluated during blood collection."}, "[3]": {"test_system": "lung tissues of SD rats, hypoxia (the oxygen content was 11%) treatment", "assay": "H&E staining / pathological analysis of lung tissue paraffin sections after hypoxia treatment", "conditions": "1 mg/kg single intravenous injection, after 24 h of hypoxia treatment", "procedure": "2. Animal model: SPF-grade SD male rats, 220-240 g of the weight, and hypoxia (the oxygen content was 11%) treatment. 4. Administration mode: before the hypoxia treatment, a single intravenous injection was administered to each rat in the hypoxia treatment administration group. 7. Hematoxylin-eosin (H&E) staining: Lung tissues of the hypoxia treatment (24 h) control group and the hypoxia treatment (24 h) administration group (dose: 1 mg/kg) were taken for paraffin section preparation, staining, and case analysis. 1) Paraffin sections were dewaxed to water: the sections were sequentially placed in xylene I for 20 min, xylene II for 20 min, anhydrous ethanol I for 5 min, anhydrous ethanol II for 5 min, and 75% alcohol for 5 min, and finally washed with tap water. 2) Hematoxylin staining: the sections were placed in hematoxylin staining solution and stained for 3-5 min, then washed with the tap water, and differentiated with differentiation solution, then washed with the tap water. It returned to blue by blue returning solution, and finally it was washed with running water. 3) Eosin staining: the sections were sequentially dehydrated with 85% and 95% of gradient alcohol for 5 min respectively, and placed in eosin staining solution and stained for 5 min. […]"}}}
{"smiles": "C=CCc1cc(N)c(O)c(-c2ccc(O)c(CC=C)c2)c1", "note": "[Compound 1, 3′, 5-diallyl-3-amino-[1,1′-biphenyl]-2,4′-diol]", "values": [{"measurement": "blood oxygen partial pressure (PO2) vs control group", "setting": "[1]; 0.58 mg/kg single intravenous injection before hypoxia, after 24 h of hypoxia treatment, p=0.0012", "result": "significantly higher than those of the control group"}, {"measurement": "blood oxygen saturation (SO2) vs control group", "setting": "[1]; 0.58 mg/kg single intravenous injection before hypoxia, after 24 h of hypoxia treatment, p=0.019", "result": "significantly higher than those of the control group"}, {"measurement": "respiratory rate (RR) vs control group", "setting": "[2]; 0.58 mg/kg single intravenous injection, after 24 h of hypoxia treatment", "result": "lower than that of the control group, and the different was significant"}]}
{"smiles": "C=CCc1cc(NC(=O)[C@@H](N)CCCCN)c(O)c(-c2ccc(O)c(CC=C)c2)c1.Cl.Cl", "note": "[Compound 2, (S)-2,6-diamino-N-(3′,5-diallyl-2,4′-dihydroxy-[1,1′-biphenyl]-3-yl) hexanamide dihydrochloride]", "values": [{"measurement": "blood oxygen saturation (SO2) vs control group", "setting": "[1]; 0.25 mg/kg single intravenous injection, after 1 h of hypoxia treatment, p=0.023", "result": "higher than that of the control group, and the difference was significant"}, {"measurement": "blood oxygen partial pressure (PO2) vs control group", "setting": "[1]; 0.25 mg/kg single intravenous injection, after 1 h of hypoxia treatment, p=0.059", "result": "higher than that of the control group, but the difference was not significant"}, {"measurement": "blood oxygen saturation (SO2) vs control group", "setting": "[1]; 0.25 mg/kg single intravenous injection, after 6 h of hypoxia treatment, p=0.015", "result": "higher than those of the control group, and the difference was significant"}, {"measurement": "blood oxygen partial pressure (PO2) vs control group", "setting": "[1]; 0.25 mg/kg single intravenous injection, after 6 h of hypoxia treatment, p=0.018", "result": "higher than those of the control group, and the difference was significant"}, {"measurement": "blood oxygen saturation (SO2) vs control group", "setting": "[1]; 1 mg/kg single intravenous injection, after 6 h of hypoxia treatment, p=0.0012", "result": "higher than that of the control group, and the difference was significant"}, {"measurement": "blood oxygen partial pressure (PO2) vs control group", "setting": "[1]; 1 mg/kg single intravenous injection, after 6 h of hypoxia treatment, p=0.003", "result": "higher than that of the control group, and the difference was significant"}, {"measurement": "blood oxygen saturation (SO2) vs control group", "setting": "[1]; 1 mg/kg single intravenous injection, after 24 h of hypoxia treatment, p=0.001", "result": "higher than those of the control group, and the difference was significant"}, {"measurement": "blood oxygen partial pressure (PO2) vs control group", "setting": "[1]; 1 mg/kg single intravenous injection, after 24 h of hypoxia treatment, p=0.0012", "result": "higher than those of the control group, and the difference was significant"}, {"measurement": "blood oxygen saturation (SO2) vs control group", "setting": "[1]; 40 mg/kg single gavage (intragastric) administration, after 24 h of hypoxia treatment, p=0.016", "result": "higher than those of the control group, and the difference was significant"}, {"measurement": "blood oxygen partial pressure (PO2) vs control group", "setting": "[1]; 40 mg/kg single gavage (intragastric) administration, after 24 h of hypoxia treatment, p=0.036", "result": "higher than those of the control group, and the difference was significant"}, {"measurement": "lung tissue injuries (H&E pathological analysis) vs control group", "setting": "[3]", "result": "able to alleviate the tissue injuries caused by hypoxia (anoxia)"}, {"measurement": "respiratory rate (RR) vs control group", "setting": "[2]; 1 mg/kg single intravenous injection, after 6 h of hypoxia treatment", "result": "lower than that of the control group, and the difference was significant"}, {"measurement": "respiratory rate (RR) vs control group", "setting": "[2]; 1 mg/kg single intravenous injection, after 24 h of hypoxia treatment", "result": "lower than that of the control group, and the difference was significant"}, {"measurement": "respiratory rate (RR) vs control group", "setting": "[2]; 40 mg/kg single gavage (intragastric) administration, after 24 h of hypoxia treatment", "result": "lower than that of the control group, and the difference was significant"}]}
{"smiles": "C=CCc1cc(NC(=O)[C@@H](N)CCSC)c(O)c(-c2ccc(O)c(CC=C)c2)c1.Cl", "note": "[Compound 3, (S)-2-amino-N-(3′,5-diallyl-2,4′-dihydroxy-[1,1′-biphenyl]-3-yl)-4-(methylthio) butanamide hydrochloride]", "values": [{"measurement": "blood oxygen saturation (SO2) vs control group", "setting": "[1]; 0.93 mg/kg single intravenous injection, after 24 h of hypoxia treatment, p=0.06", "result": "higher than that of the control group"}, {"measurement": "respiratory rate (RR) vs control group", "setting": "[2]; 0.93 mg/kg single intravenous injection, after 24 h of hypoxia treatment", "result": "lower than that of the control group, and the difference was significant"}]}
{"smiles": "C=CCc1cc(NC(C)=O)c(O)c(-c2ccc(O)c(CC=C)c2)c1", "note": "[Compound 4, N-(3′,5-diallyl-2,4′-dihydroxy-[1,1′-biphenyl]-3-yl) acetamide]", "values": [{"measurement": "blood oxygen saturation (SO2) vs control group", "setting": "[1]; 0.67 mg/kg single intravenous injection, after 24 h of hypoxia treatment, p=0.0023", "result": "higher than those of the control group"}, {"measurement": "blood oxygen partial pressure (PO2) vs control group", "setting": "[1]; 0.67 mg/kg single intravenous injection, after 24 h of hypoxia treatment, p=0.023", "result": "higher than those of the control group"}, {"measurement": "respiratory rate (RR) vs control group", "setting": "[2]; 0.67 mg/kg single intravenous injection, after 24 h of hypoxia treatment", "result": "lower than that of the control group, and the difference was significant"}]}
